In patent US11998606B2, “Compounds and methods for selective proteolysis of glucocorticoid receptors” (Board of Regents, The University of Texas System, priority 2018, dated 2024):
“And” between values parts separate entries of the source, which are not always exact repeats. Identical values can stand only once. Like-named read-outs stand apart in the source and are kept apart here.

Tests used:
[1] = Single dose intraperitoneal pharmacokinetics in CD-1 mice, plasma concentration by HPLC-MS; type: in vivo; conditions: 10 mg/kg IP
DU145 cells = assay: DU145 cell line proliferation assay (Incucyte confluency); type: cell-based; conditions: 1 μM, 3.3 μM or 10 μM, 5 days, versus DMSO control
Method: DU145 cells are routinely maintained in RPMI 1640 media. Proliferation is determined using a real time cell imaging device, Incucyte. Cells are initially seeded at density of 2000 cells per well in 96-well plates. 24 hours post-seeding, cells are treated with DMSO control or GR degraders at 1 μM, 3.3 μM or 10 μM concentration. Cells are allowed to grow under regular growth conditions for 5 days while being monitored and imaged every four hours by Incucyte. Confluency of cells, a surrogate for proliferation, is calculated and plotted.

[2] = test system: TRAMP-C1 prostate cancer cells; assay: In vivo anti-tumor efficacy, TRAMP-C1 tumors in immunocompetent mice; set-up: species or system male C57/Bl6 mice; conditions: C57/Bl6 mice, Example 3 100 mg/kg + anti-PD1 antibody 200 μg IP once daily, 7 days
Method: TRAMP-C1 cells (5×10^6) were injected into the flanks of male C57/Bl6 mice. Tumor take was monitored visually and by palpation bi-weekly. Once tumors reached 200 mm^3 mice were randomized into control and different treatment groups for 7 days. Treatment cohorts are as follows: • a. Vehicle is 5% Cremophor: 5% Ethanol in saline, (n=10 animals) • b. GR degrader Example #3 (100 mg/kg) IP once daily in 5% Cremophor: 5% Ethanol in saline (n=10 animals) • c. Anti-PD1 antibody, clone RMP1-14 (200 μg) IP once daily in 5% Cremophor: 5% Ethanol in saline (n=10 animals) • d. GR degrader Example #3 (100 mg/kg)+Anti-PD1 antibody (200 μg) IP once daily in 5% Cremophor: 5% Ethanol in saline (n=10 animals)
Tumor diameter and volume were calculated based on caliper measurements of tumor length and […] using the formula tumor volume=(length×width^2)/2. Tumor volume and body weight were measured three times.

PC3 cells = assay: PC3 cell line clonogenic (colony formation) assay; type: cell-based; conditions: 3.3 μM or 10 μM, 10-14 days, versus DMSO control
Method: PC3 cells are routinely maintained in RPMI 1640 media. Cell growth is determined using crystal violet staining. Cells are initially seeded at density of 1000 to 2000 cells per well in 6-well plates. 24 hours post-seeding, cells are treated with DMSO control, enzalutamide, RU-486 or various GR degraders at 3.3 μM or 10 μM concentration. Cells are allowed to grow under regular growth conditions for 10-14 days. Cells are then fixed with 80% MeOH and stained with crystal violet solution (0.05%) overnight. Plates are then washed in water, dried and scanned.

[3] = Single dose intraperitoneal pharmacokinetics in CD-1 mice, plasma concentration by HPLC-MS; type: in vivo
Method: The intraperitoneal bioavailability was determined in the following study: three CD-1 female mice were dosed by intraperitoneal injection (10 mg/kg) and plasma collected at the following hourly time points (0.083, 0.25, 0.5, 1, 2, […] and 24h). Plasma concentration was determined by HPLC-MS.
Table 1 illustrates pharmacokinetic properties of the Example 3 compound in CD-1 mice (n=3) after a single intraperitoneal dose of 10 mg/kg.

[4] = test system: VCaP prostate cancer cells; assay: In vivo anti-tumor efficacy, VCaP castration resistant prostate cancer xenograft model; set-up: species or system Male CB17 SCID Mice; conditions: castrated CB17 SCID mice, Example 3 100 mg/kg + enzalutamide 10 mg/kg IP once daily
Method: 1×10^7 VCaP cells were injected into the flanks of male CB17 SCID Mice. Tumor take was monitored visually and by palpation bi-weekly. Once tumors reached 200 mm^3 mice were castrated. Once tumors stopped shrinking, mice were randomized into control and different treatment groups for 26 days. Treatment cohorts are as follows: • a. Vehicle is 5% Cremophor: 5% Ethanol in saline, (n=10 animals) • b. GR degrader example #3 (100 mg/kg) IP once daily in 5% Cremophor: 5% Ethanol in saline (n=10 animals) • c. Enzalutamide (10 mg/kg) IP once daily in 5% Cremophor: 5% Ethanol in saline (n=10 animals) • d. GR degrader example #3 (100 mg/kg)+Enzalutamide (10 mg/kg) IP once daily in 5% Cremophor: 5% Ethanol in saline (n=10 animals)
Tumor diameter and volume were calculated based on caliper measurements of tumor length and […] using the formula tumor volume=(length×width^2)/2. Tumor volume and body weight were measured three times a week.

[5] = female, mouse, ip, CD-1 mice (n=3), single intraperitoneal dose of 10 mg/kg

CC#C[C@]1(O)CC[C@H]2[C@@H]3CCC4=CC(=O)CCC4=C3[C@@H](c3ccc(N(C)CCCC(=O)N4CCN(C(=O)OC(C)(C)C)CC4C(=O)N4CCN(C(=O)OC(C)(C)C)CC4C(=O)NCCCOCCOCCOCCCNc4cccc5c4C(=O)N(C4CCC(=O)NC4=O)C5=O)cc3)C[C@@]21C (stereo partly drawn) [Example 3, tert-Butyl-4-(4-(tert-butoxycarbonyl)-1-(4-((4-((8S,11R,13S,14S,17S)-17-hydroxy-13-methyl-3-oxo-17-(prop-1-yn-1-yl)-2,3,6,7,8,11,12,13,14,15,16,17-dodecahydro-1H-cyclopenta[a]phenanthren-11-yl)phenyl)(methyl)amino)butanoyl)piperazine-2-carbonyl)-3-((3-(2-(2-(3-((2-(2,6-dioxopiperidin-3-yl)-1,3-dioxoisoindolin-4-yl)amino)-propoxy)ethoxy)ethoxy)propyl)carbamoyl)piperazine-1-carboxylate]
concentration at 8 h ([1]; 4 hr, individual animals, read-out: Individual concentration): 3.22 µM and 3.21 µM | concentration at 8 h ([1]; 8 hr, individual animals, read-out: Individual concentration): 2.98 µM and 2.61 µM | concentration at 8 h ([1]; female, CD-1, mouse, ip, 10 mg/kg, 8 hr, individual animals, read-out: Individual concentration): 2.9 µM | concentration at 8 h ([1]; female, CD-1, mouse, ip, 10 mg/kg, 8 hr, n=3, read-out: Mean concentration): 2.83 µM | Proliferation (confluency) (DU145 cells): displays efficacy against DU145 cancer cells | Tumor growth, combination with anti-PD1 antibody [2]: synergizes with anti-PD1 antibody to inhibit growth of prostate cancer | Colony formation (crystal violet staining) (PC3 cells): inhibited colony formation | concentration at 0.5 h ([3]; 0.083 hr, 10 mg/kg IP, CD-1 mice, individual animals, 10 mg/kg, read-out: Individual concentration): 0.0722 µM and 0.135 µM | concentration at 0.5 h ([3]; 0.25 hr, 10 mg/kg IP, CD-1 mice, individual animals, 10 mg/kg, read-out: Individual concentration): 0.283 µM and 0.0930 µM and 0.173 µM | concentration at 0.5 h ([3]; 0.5 hr, 10 mg/kg IP, CD-1 mice, individual animals, 10 mg/kg, read-out: Individual concentration): 0.652 µM and 0.939 µM | concentration at 0.5 h ([3]; 1 hr, 10 mg/kg IP, CD-1 mice, individual animals, 10 mg/kg, read-out: Individual concentration): 1.01 µM and 0.147 µM and 0.358 µM | concentration at 0.5 h ([3]; 2 hr, 10 mg/kg IP, CD-1 mice, individual animals, 10 mg/kg, read-out: Individual concentration): 1.48 µM and 2.87 µM | concentration at 0.5 h ([3]; 24 hr, 10 mg/kg IP, CD-1 mice, individual animals, 10 mg/kg, read-out: Individual concentration): 0.505 µM and 0.617 µM | concentration at 0.083 h ([3]; female, CD-1, mouse, ip, 10 mg/kg, 0.083 hr, 10 mg/kg IP, CD-1 mice, individual animals, read-out: Individual concentration): 114 nM | concentration at 0.083 h ([3]; female, CD-1, mouse, ip, 10 mg/kg, 0.083 hr, 10 mg/kg IP, CD-1 mice, n=3, read-out: Mean concentration): 107 nM | concentration at 0.25 h ([3]; female, CD-1, mouse, ip, 10 mg/kg, 0.25 hr, 10 mg/kg IP, CD-1 mice, n=3): 183 nM | concentration at 0.5 h ([3]; female, CD-1, mouse, ip, 10 mg/kg, 0.5 hr, 10 mg/kg IP, CD-1 mice, individual animals, read-out: Individual concentration): 0.727 µM | concentration at 0.5 h ([3]; female, CD-1, mouse, ip, 10 mg/kg, 0.5 hr, 10 mg/kg IP, CD-1 mice, n=3, read-out: Mean concentration): 0.773 µM | concentration at 1 h ([3]; female, CD-1, mouse, ip, 10 mg/kg, 1 hr, 10 mg/kg IP, CD-1 mice, n=3): 505 nM | concentration at 2 h ([3]; female, CD-1, mouse, ip, 10 mg/kg, 2 hr, 10 mg/kg IP, CD-1 mice, individual animals, read-out: Individual concentration): 2240 nM | concentration at 2 h ([3]; female, CD-1, mouse, ip, 10 mg/kg, 2 hr, 10 mg/kg IP, CD-1 mice, n=3, read-out: Mean concentration): 2200 nM | concentration at 4 h ([3]; female, CD-1, mouse, ip, 10 mg/kg, 10 mg/kg IP, CD-1 mice, individual animals, read-out: Individual concentration): 3.3 µM | concentration at 4 h ([3]; female, CD-1, mouse, ip, 10 mg/kg, 10 mg/kg IP, CD-1 mice, n=3, read-out: Mean concentration): 3.24 µM | concentration at 24 h ([3]; female, CD-1, mouse, ip, 10 mg/kg, 24 hr, 10 mg/kg IP, CD-1 mice, individual animals, read-out: Individual concentration): 440 nM | concentration at 24 h ([3]; female, CD-1, mouse, ip, 10 mg/kg, 24 hr, 10 mg/kg IP, CD-1 mice, n=3, read-out: Mean concentration): 521 nM | AUC(0-t) [3, 5]: 46.2 µM·h | Cmax [3, 5]: 3.24 µM | Tmax [3, 5]: 4 h | Xenograft tumor growth, combination with enzalutamide [4]: synergizes with enzalutamide to inhibit growth of prostate cancer

CNC(=O)c1ccc(N2C(=S)N(c3ccc(C#N)c(C(F)(F)F)c3)C(=O)C2(C)C)cc1F [enzalutamide, reference compound]
Proliferation (confluency) (DU145 cells): did not differ significantly from control | Colony formation (crystal violet staining) (PC3 cells): did not differ significantly from control
